Laboratory results from patent US20100093692A1, “PIPERIDINYL-PIPERIDINE AND PIPERAZINYL-PIPERIDINE FOR USE IN THE TREATMENT OF DIABETES OR PAIN” (Schering Corporation Sechering-Plough Corporation, priority 2007, published 2010).
Structures can show the parent of a compound that is named as a salt.

Tests used:
H3 receptors = target: T1, H3 receptors (Cavia porcellus, UniProt Q9JI35); test: Guinea pig H3 receptor binding assay; details: guinea pig brain membranes; [3H]R-α-methyl histamine or [3H]Nα-methyl histamine; range stated for a group of compounds
T1 construct: The source of the H3 receptors in this experiment was guinea pig brain; from tissue; host or cells: guinea pig brain membranes
Protocol: The source of the H3 receptors in this experiment was guinea pig brain obtained from animals weighing 400-600 g. The brain tissue was homogenized with a solution of 50 mM Tris, pH 7.5. The final concentration of tissue in the homogenization buffer was 10% w/v. The homogenates were centrifuged at 1,000×g for 10 minutes in order to remove clumps of tissue and debris. The resulting supernatants were then centrifuged at 50,000×g for 20 minutes in order to sediment the membranes, which were then washed three times in homogenization buffer (50,000×g for 20 minutes each). The membranes were frozen and stored at −70° C. until needed.
All compounds to be tested were dissolved in DMSO and then diluted into the binding buffer (50 mM Tris, pH 7.5) such that the final concentration was 2 μg/mL with 0.1% DMSO. Membranes were then added (400 μg of protein) to the reaction tubes. The reaction was started by the addition of 3 nM [^3H]R-α-methyl histamine (8.8 Ci/mmol) or 3 nM [^3H]N^α-methyl histamine (80 Ci/mmol) and continued under incubation at 30° C. for 30 minutes. Bound ligand was separated from unbound ligand by filtration, and the amount of radioactive ligand bound to the membranes was quantitated by liquid scintillation spectrometry. All incubations were performed in duplicate and the standard error was always less than 10%. Compounds that inhibited more than 70% of the specific binding of radioactive ligand to the receptor were serially diluted to determine a Ki (nM).

[1] = tested on: STZ-induced type 2 diabetic mice; test: In vivo effect on glucose levels in diabetic mice (western diet + low dose STZ); parameters: species or system mouse; details: 10 mg/kg/day in diet, four weeks; relative to control mice and mice treated with rosiglitazone (5 mg/kg/day in diet)
Protocol: Five-week-old male ICR mice were purchased from Taconic Farm (Germantown, N.Y.) and placed on a “western diet” containing 45% (kcal) fat from lard and 0.12% (w/w) cholesterol. After 3 weeks of feeding, the mice were injected once with low dose streptozocin (STZ, ip 80 mg/kg) to induce partial insulin deficiency. […] The diabetic mice were then placed in one of three groups: (1) a non-treated control group, (2) a group treated with rosiglitazone (5 mg/kg/day in diet); or (3) a group treated with Compound 446 (10/mg/kg/day in diet). All animals were treated for four weeks.

[2] = tested on: diabetic Goto-Kakizaki rats; test: In vivo effect on glucose levels in diabetic Goto-Kakizaki rats; parameters: species or system rat; details: 10 mg/kg/day in food chow, one week; untreated rats 34 mg/dl
Protocol: Adult, diabetic, Goto-Kakizaki rats (14 weeks old) were tested for non-fasting glucose levels using a glucometer. Rats with glucose levels between 130 and 370 mg/dl were randomized into treatment (N=10) and control (N=10) groups. Animals in the treatment group were administered Compound 446 in their food chow at a dose of 10 mg/kg/day. After one week of treatment, blood was collected via tail snip and the non-fasting glucose level was measured using a glucometer.

[3] = tested on: STZ-DIO Sprague-Dawley rats (T2DM); test: In vivo effect on glucose and HbA1c in STZ-DIO diabetic rats; parameters: species or system rat; details: two weeks
Protocol: Seventy male DIO Sprague-Dawley rats were fed HFD (45% Kcal fat) for 3 months from weaning, and were given streptozotocin (STZ) intraperitoneally at 25 mg/kg to induce type 2 diabetes (T2DM). Forty four T2DM rats were chosen for the study two weeks after STZ injection (n=11 per group, with body weights between 632 and 838 g, non-fasting glucose between 226 and 426 mg/dl and HbA1c between 8.7% and 10.9%) and were given ad libitum access to pre-weighed 45% fat (kcal) HFD or Compound 287 (1.4, 2.9 mg/g in HFD) for two weeks. Body weight, non-fasting glucose and food intake were monitored daily. Body composition and HbA1c levels were monitored before and after the two-week study by the whole body magnetic resonance analyzer and Cholestech GDX analyzer (Hayward, Calif.), respectively. The STZ-DIO rats had elevated non-fasting glucose and HbA1c levels (non-fasting glucose were between 226 and 426 mg/dl; and HbA1c were between 8.7% and 10.9%) two weeks after STZ injection. The low dose of STZ caused a 48% reduction of plasma insulin levels, which was not sufficient to cause hyperglycemia in rats fed with chow diet. In contrast, this level of plasma insulin induced hyperglycemia in the face of insulin resistance induced by the HFD. […] The control STZ-DIO rats maintained non-fasting glucose levels above […] (+12 mg/dl), which led to a significant 0.96% increase in HbA1c over 14 days.

[4] = target: T2, human histamine H3 receptor (Homo sapiens, UniProt Q9Y5N1); test: Human H3 receptor binding assay; details: HEK-293 membranes expressing human H3; 1 nM [3H]N-α-methylhistamine; n=4
T2 construct: The full-length human histamine H3 receptor was cloned by PCR; expressed in transfected cells
Protocol: The full-length human histamine H3 receptor was cloned by PCR from a human thalamus cDNA library, with primers derived from a public database, and inserted into the CMV promoter-driven expression vector pcDNA-3.1 (Invitrogen). HEK-293 human embryonic kidney cells (ATCC) were transfected with H3 receptor plasmid and stably expressing cells were selected with G-418. Cells were grown in Dulbecco's modified Eagle's medium/10% fetal calf serum containing high glucose, 25 mM Hepes, penicillin (100 U/ml), streptomycin (100 ug/ml), 2 mM glutamine, and 0.5 mg G-418/ml at 37° C. in a humidified atmosphere of 5% CO2. For membrane preparations, cells were harvested using aspirating media, replacing it with 5 mM EDTA/0.02% trypsin/Hank's balanced salt solution, followed by incubation at 37° C. for 5 to 10 minutes. […] Nonspecific binding was determined in the presence of 10^-5 M thioperamide. After a 30 minute incubation at 30° C., assay mixtures were filtered through 0.3% polyethylenimine-soaked GF/B glass fiber filters, which were then rinsed thrice with buffer, dried, impregnated with Meltilex wax scintillant, and counted. IC50 values were determined from curves fit to the data using a non-linear, least-squares, curve-fitting program and Ki values were determined using the method of Cheng and Prusoff.

T1 sequence (Q9JI35 whole entry): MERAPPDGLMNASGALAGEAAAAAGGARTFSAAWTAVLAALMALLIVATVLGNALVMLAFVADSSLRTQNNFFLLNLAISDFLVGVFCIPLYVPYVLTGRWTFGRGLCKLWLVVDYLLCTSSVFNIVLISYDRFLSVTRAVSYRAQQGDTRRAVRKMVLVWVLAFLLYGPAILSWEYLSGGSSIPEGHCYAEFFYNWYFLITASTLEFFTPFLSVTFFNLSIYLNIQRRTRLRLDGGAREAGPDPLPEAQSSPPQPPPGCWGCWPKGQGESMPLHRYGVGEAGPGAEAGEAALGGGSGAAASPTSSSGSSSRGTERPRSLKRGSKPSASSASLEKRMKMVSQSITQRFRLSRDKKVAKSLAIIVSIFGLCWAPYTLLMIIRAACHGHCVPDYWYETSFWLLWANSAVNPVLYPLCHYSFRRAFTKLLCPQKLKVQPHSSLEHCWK
T2 sequence (Q9Y5N1 whole entry): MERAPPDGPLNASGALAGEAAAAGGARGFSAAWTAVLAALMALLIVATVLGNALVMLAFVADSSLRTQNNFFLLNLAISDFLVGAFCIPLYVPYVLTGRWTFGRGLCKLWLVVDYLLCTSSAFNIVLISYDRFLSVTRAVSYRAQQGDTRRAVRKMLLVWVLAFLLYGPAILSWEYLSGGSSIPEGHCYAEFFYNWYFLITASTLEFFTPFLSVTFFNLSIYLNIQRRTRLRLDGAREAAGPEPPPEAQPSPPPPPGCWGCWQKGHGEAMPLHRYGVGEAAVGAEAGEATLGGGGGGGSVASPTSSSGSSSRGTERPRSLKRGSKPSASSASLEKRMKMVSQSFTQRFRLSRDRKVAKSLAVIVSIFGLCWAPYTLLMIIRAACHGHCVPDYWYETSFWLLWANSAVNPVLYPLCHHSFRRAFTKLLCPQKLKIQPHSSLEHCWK

SMILES	Ki (H3 receptors) [nM]	also measured
CO/N=C(/c1ccccn1)C1CCN(C(=O)C2CCN(Cc3ccnc(N)c3)CC2)CC1 [Compound 32]	0.83 to 16	
CO/N=C(/c1ccccn1)C1CCN(C(=O)C2(F)CCN(Cc3ccnc(N)c3)CC2)CC1 [Compound 446]		HbA1C levels [1]: significantly reduced; non-fasting glucose levels [1]: significantly reduced; average reduction in non-fasting glucose levels [2]: 81 mg/dL
CO/N=C(\c1ccccn1)C1CCN(C(=O)C2CCN([C@@H](C)c3ccnc(N)c3)CC2)CC1 [Compound 56]	0.83 to 16	
CON=C(c1ccccn1)C1CCN(C(=O)C2CCN(Cc3ccnc(N)c3)CC2)CC1 [Compound 31]	0.83 to 16	
CO/N=C(/c1ccc(Cl)cc1)C1CCN(C(=O)C2CCN(Cc3ccnc(N)c3)CC2)CC1 [Compound 225]	0.83 to 16	
CO/N=C(\c1ccccn1)C1CCN(C(=O)C2CCN(Cc3ccnc(N)c3)CC2)CC1 [Compound 33]	0.83 to 16	
CON=C(c1ccc(Cl)cc1)C1CCN(C(=O)C2CCN(Cc3ccnc(N)c3)CC2)CC1 [Compound 280]	0.83 to 16	
CON=C(CC1CCN(C(=O)C2CCN(Cc3ccnc(N)c3)CC2)CC1)c1ccccn1 (as salt: maleate) [Compound 117]		melting point: 160 to 163 °C
CO/N=C(/c1ccccn1)C1CCN(C(=O)C2CCN(Cc3cnc(N)nc3)CC2)CC1 [Compound 287]		decrease in HbA1c level ([3]; 68 mg/kg/day, 2.9 mg/g in HFD, control 0.96% increase): 0.6%; change in non-fasting glucose ([3]; 68 mg/kg/day, 2.9 mg/g in HFD, control +12 mg/dl): -43 mg/dL; HbA1c levels over the two week study period ([3]; 1.4, 2.9 mg/g in HFD): dose-dependent reduction; Ki [4]: 25 ± 4 nM
Nc1cc(CN2CCC(C(=O)N3CCC(C(=O)c4ccccn4)CC3)CC2)ccn1 [Compound 30]	0.83 to 16	

Continued, in another order:

Ki (H3 receptors) [nM]	SMILES	also measured
0.83 to 16	CO/N=C(/c1ccc(Cl)cc1)C1CCN(C(=O)C2CCN(Cc3ccncc3)CC2)CC1 [Compound 273]	
0.83 to 16	Nc1cc(CN2CCC(C(=O)N3CCC(C(=NO)c4ccccn4)CC3)CC2)ccn1 [Compound 237]	
0.83 to 16	CO/N=C(/c1ccccn1)C1CCN(C(=O)C2CCN([C@H](C)c3ccnc(N)c3)CC2)CC1 [Compound 55]	
0.83 to 16	CO/N=C(/c1ccccn1)C1CCN(C(=O)C2CCN([C@@H](C)c3ccnc(N)c3)CC2)CC1 [Compound 54]	
